Test results taken from the supplement of paper PMC11451515.

System: P12-Ichikawa
Experiment: cell viability relative to DMSO control; higher = less cytotoxic
Conditions: 48 h
Method in brief: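 Library compounds in DMSO were pin-dosed into 1536-well plates (5 μl) holding NOMO1 or SEM (500 cells/well) or P12-Ichikawa (1000 cells/well) leukemia cells, across an 11-point threefold series of 47 μM to 0.79 nM. Each cell line had been adapted for at least four passages in each medium. CellTiter-Glo One luminescence was read after 48 h at 37°C. Viability is the per-plate percentage relative to DMSO wells, with cell-free wells as background.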

[1] = HPLM + 10% dialyzed FBS, 0.000781 µM
[2] = HPLM + 10% dialyzed FBS, 0.00234 µM
[3] = HPLM + 10% dialyzed FBS, 0.00702 µM
[4] = HPLM + 10% dialyzed FBS, 0.0211 µM
[5] = HPLM + 10% dialyzed FBS, 0.0632 µM
[6] = HPLM + 10% dialyzed FBS, 0.19 µM
[7] = HPLM + 10% dialyzed FBS, 0.569 µM
[8] = HPLM + 10% dialyzed FBS, 1.71 µM
[9] = HPLM + 10% dialyzed FBS, 5.12 µM
[10] = HPLM + 10% dialyzed FBS, 15.4 µM
[11] = HPLM + 10% dialyzed FBS, 46.1 µM
[12] = RPMI 5 mM glucose + 10% FBS, 0.000781 µM
[13] = RPMI 5 mM glucose + 10% FBS, 0.00234 µM
[14] = RPMI 5 mM glucose + 10% FBS, 0.00702 µM
[15] = RPMI 5 mM glucose + 10% FBS, 0.0211 µM
[16] = RPMI 5 mM glucose + 10% FBS, 0.0632 µM
[17] = RPMI 5 mM glucose + 10% FBS, 0.19 µM
[18] = RPMI 5 mM glucose + 10% FBS, 0.569 µM
[19] = RPMI 5 mM glucose + 10% FBS, 1.71 µM
[20] = RPMI 5 mM glucose + 10% FBS, 5.12 µM
[21] = RPMI 5 mM glucose + 10% FBS, 15.4 µM
[22] = RPMI 5 mM glucose + 10% FBS, 46.1 µM
[23] = RPMI 5 mM glucose + 10% dialyzed FBS, 0.000781 µM
[24] = RPMI 5 mM glucose + 10% dialyzed FBS, 0.00234 µM
[25] = RPMI 5 mM glucose + 10% dialyzed FBS, 0.00702 µM
[26] = RPMI 5 mM glucose + 10% dialyzed FBS, 0.0211 µM
[27] = RPMI 5 mM glucose + 10% dialyzed FBS, 0.0632 µM
[28] = RPMI 5 mM glucose + 10% dialyzed FBS, 0.19 µM
[29] = RPMI 5 mM glucose + 10% dialyzed FBS, 0.569 µM
[30] = RPMI 5 mM glucose + 10% dialyzed FBS, 1.71 µM
[31] = RPMI 5 mM glucose + 10% dialyzed FBS, 5.12 µM
[32] = RPMI 5 mM glucose + 10% dialyzed FBS, 15.4 µM
[33] = RPMI 5 mM glucose + 10% dialyzed FBS, 46.1 µM

Row | SMILES | cell viability [1] | cell viability [2] | cell viability [3] | cell viability [4] | cell viability [5] | cell viability [6] | cell viability [7] | cell viability [8] | cell viability [9] | cell viability [10] | cell viability [11] | cell viability [12] | cell viability [13] | cell viability [14] | cell viability [15] | cell viability [16] | cell viability [17] | cell viability [18] | cell viability [19] | cell viability [20] | cell viability [21] | cell viability [22] | cell viability [23] | cell viability [24] | cell viability [25] | cell viability [26] | cell viability [27] | cell viability [28] | cell viability [29] | cell viability [30] | cell viability [31] | cell viability [32] | cell viability [33]
1 | OC1=CC2=C(C(=O)\C=C(/O2)C3=CC=CC=C3)C(=C1O)O | 114% | 110% | 120% | 113% | 113% | 106% | 111% | 109% | 64.9% | 9.59% | 10.4% | 117% | 112% | 104% | 118% | 120% | 111% | 117% | 116% | 114% | 13.3% | 12% | 113% | 117% | 120% | 112% | 111% | 110% | 112% | 118% | 108% | 23.7% | 23.2%
2 | O=C(NCCO[N+](=O)[O-])c1cccnc1 | 112% | 113% | 118% | 122% | 115% | 117% | 115% | 116% | 113% | 121% | 118% | 112% | 126% | 120% | 130% | 121% | 119% | 126% | 126% | 127% | 126% | 118% | 112% | 116% | 109% | 114% | 111% | 123% | 111% | 112% | 112% | 111% | 117%
3 | CC1(C)Cc2c(sc(NC(=S)NC(=O)c3ccccc3)c2C(=O)O)CO1 | 99.1% | 109% | 107% | 110% | 109% | 115% | 118% | 114% | 101% | 99.2% | 101% | 103% | 110% | 110% | 116% | 119% | 118% | 121% | 112% | 110% | 108% | 106% | 103% | 112% | 108% | 110% | 115% | 109% | 126% | 122% | 114% | 105% | 106%
4 | CN[C@H]1[C@H](O[C@@H]2[C@H](O[C@@H]3[C@@H](O)[C@@H](O)[C@@H](NC(=N)N)[C@@H](O)[C@H]3NC(=N)N)O[C@H](C)[C@@]2(O)C=O)O[C@@H](CO)[C@@H](O)[C@H]1O | 117% | 117% | 120% | 108% | 112% | 115% | 110% | 110% | 99.9% | 108% | 111% | 108% | 109% | 107% | 112% | 120% | 122% | 102% | 95.5% | 94.7% | 97.8% | 103% | 118% | 115% | 136% | 123% | 112% | 105% | 89.3% | 86% | 105% | 104% | 116%
5 | CCc1cccc2c3c([nH]c12)C(CC)(CC(=O)O)OCC3 (stereo not given) | 108% | 107% | 110% | 109% | 104% | 105% | 105% | 108% | 99.4% | 99.2% | 93.7% | 104% | 107% | 106% | 103% | 101% | 99.9% | 100% | 93.1% | 96.4% | 96.6% | 85.7% | 94.4% | 98% | 99.9% | 103% | 102% | 101% | 98.9% | 98.1% | 92.9% | 94.1% | 84.8%
6 | CCCCCCCCOc1ccccc1C(=O)Nc1ccc(C(=O)OCC[N+](C)(CC)CC)cc1 | 93.6% | 94.9% | 98.2% | 95.8% | 97.7% | 98.3% | 89.1% | 91.4% | 85.6% | 84.2% | 71.8% | 91.6% | 102% | 89.9% | 107% | 104% | 104% | 93.4% | 91.3% | 85.2% | 87.7% | 49% | 89.3% | 83.5% | 88.2% | 90.3% | 95% | 86.2% | 91% | 90.3% | 78.6% | 83.4% | 46.4%
7 | Cc1ccc(NC(=O)Nc2cc(C(F)(F)F)ccc2F)cc1Nc1ccc2c(c1)NC(=O)/C2=C\c1ccc[nH]1 | 122% | 123% | 133% | 133% | 131% | 143% | 139% | 134% | 128% | 137% | 70.3% | – | – | – | – | – | – | – | – | – | – | – | – | – | – | – | – | – | – | – | – | – | –
8 | NC(=O)c1ccc(-c2nc(-c3ccc4c(c3)OCO4)c(-c3ccccn3)[nH]2)cc1 | 124% | 124% | 123% | 107% | 127% | 123% | 116% | 114% | 110% | 112% | 100% | 122% | 130% | 116% | 109% | 118% | 111% | 108% | 116% | 100% | 107% | 93.8% | – | – | – | – | – | – | – | – | – | – | –
9 | Cn1cnc(-c2cc3nccc(Oc4ccc(NC(=S)NC(=O)Cc5ccccc5)cc4F)c3s2)c1 | 79% | 85.6% | 77.3% | 92.7% | 91.4% | 91.5% | 94.1% | 87.8% | 83.9% | 71.8% | 15.2% | 80.9% | 82.9% | 80.5% | 87.1% | 84.7% | 85.2% | 87.1% | 92.6% | 82.7% | 58.5% | 7.61% | 80.4% | 87.6% | 83.1% | 91.8% | 96.9% | 93.7% | 85.6% | 95.9% | 82.6% | 66.3% | 15.4%
10 | CCOC(CN1C(=O)[C@](CC(=O)Nc2ccc(C)cc2)(NC(=O)Nc2ccc(C)cc2)c2ccccc21)OCC | 103% | 105% | 109% | 111% | 105% | 109% | 115% | 108% | 111% | 111% | 19.8% | 102% | 107% | 101% | 108% | 105% | 105% | 105% | 117% | 101% | 106% | 34.8% | 100% | 104% | 93.7% | 107% | 102% | 104% | 116% | 96.3% | 102% | 98% | 37.6%
11 | C=CC(=O)Nc1cccc(Oc2nc(Nc3ccc(N4CCN(C)CC4)cc3OC)ncc2Cl)c1 | 75% | 79.3% | 78.4% | 84.9% | 84.7% | 86.3% | 83% | 79.6% | 76.5% | 70.6% | 52.2% | 68% | 76% | 76.1% | 79.5% | 80.9% | 83.7% | 80.1% | 82.1% | 66% | 58.3% | 50.3% | 73% | 89.4% | 82.8% | 79.9% | 81.6% | 80.9% | 74.6% | 83.3% | 70.6% | 64.7% | 49.5%
12 | Oc1cc2c(cc1O)C1c3ccc(O)c(O)c3OCC1(O)C2 (stereo not given) | 96.7% | 106% | 108% | 112% | 103% | 113% | 95.5% | 118% | 102% | 111% | 112% | 104% | 96.6% | 102% | 101% | 101% | 103% | 102% | 110% | 118% | 109% | 108% | 97.5% | 93.8% | 103% | 102% | 98.2% | 107% | 106% | 100% | 105% | 104% | 104%
13 | CN1C2=CC(=O)/C(=N/NC(N)=O)C=C2CC1S(=O)(=O)[O-].[Na+] (stereo not given) | 105% | 112% | 112% | 112% | 108% | 113% | 115% | 115% | 110% | 112% | 112% | 103% | 112% | 108% | 112% | 109% | 118% | 118% | 115% | 113% | 112% | 106% | 105% | 108% | 105% | 108% | 111% | 113% | 123% | 112% | 110% | 117% | 110%
14 | O=[S+]([O-])(/N=C/c1c(O)ccc2ccccc12)c1cccs1 | 109% | 113% | 116% | 120% | 120% | 120% | 117% | 122% | 124% | 103% | 84.6% | 119% | 123% | 130% | 115% | 120% | 120% | 133% | 123% | 132% | 123% | 125% | 117% | 121% | 126% | 125% | 124% | 124% | 120% | 122% | 121% | 109% | 103%
15 | O=C(O)[C@@H](c1ccc(OCc2ccc3ccccc3n2)cc1)C1CCCC1 | 113% | 114% | 106% | 109% | 109% | 102% | 107% | 99.6% | 106% | 102% | 98.7% | 116% | 116% | 110% | 110% | 102% | 106% | 107% | 107% | 92.8% | 98% | 96.9% | 108% | 112% | 112% | 113% | 108% | 109% | 106% | 101% | 95.8% | 102% | 100%
16 | Cn1cc(-c2cnn3c(N)c(Br)c([C@@H]4CCCNC4)nc23)cn1 | 96.1% | 102% | 99.5% | 97.5% | 102% | 99.7% | 91.3% | 86.4% | 16.8% | 5.55% | 6.43% | 91.6% | 98.8% | 94% | 100% | 93.4% | 96.5% | 93.8% | 77.3% | 13.1% | 3.15% | 3.91% | 86.9% | 103% | 95.9% | 95.1% | 89.8% | 99% | 90.2% | 77.3% | 12.2% | 4.05% | 5.37%
